According to the supplement of paper PMC10307832:

Experiments:
Test in all cases: relative viability (nuclei count vs DMSO), 5 days (fraction); higher = more cells survive
NCI-H1355 = system: NCI-H1355
Procedure, shortened: (§1)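 Lung cancer cell lines, seeded in 1536-well plates, were treated the following day by pin tool with a single drug or with five library-drug doses (not always all listed) in √10 steps on top of a fixed anchor-drug dose. Cells were fixed and nuclei stained in one step after 5 days, and nuclei were counted. Relative viability is the nuclei count for treated wells divided by that for vehicle wells, reported as medians of duplicate plates.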

NCI-H1650 = system: NCI-H1650
Procedure, shortened: as §1

BEN = system: BEN
Procedure, shortened: as §1

CAL-12T = system: CAL-12T
Procedure, shortened: as §1

NCI-H1975 = system: NCI-H1975
Procedure, shortened: as §1

NCI-H2023 = system: NCI-H2023
Procedure, shortened: as §1

HCC-366 = system: HCC-366
Procedure, shortened: as §1

SK-LU-1 = system: SK-LU-1
Procedure, shortened: as §1

NCI-H1563 = system: NCI-H1563
Procedure, shortened: as §1

NCI-H1437 = system: NCI-H1437
Procedure, shortened: as §1

LU99A = system: LU99A
Procedure, shortened: as §1

NCI-H2085 = system: NCI-H2085
Procedure, shortened: as §1

NCI-H838 = system: NCI-H838
Procedure, shortened: as §1

COR-L23 = system: COR-L23
Procedure, shortened: as §1

NCI-H1651 = system: NCI-H1651
Procedure, shortened: as §1

NCI-H441 = system: NCI-H441
Procedure, shortened: as §1

NCI-H460 = system: NCI-H460
Procedure, shortened: as §1

NCI-H1734 = system: NCI-H1734
Procedure, shortened: as §1

LOU-NH91 = system: LOU-NH91
Procedure, shortened: as §1

For Nc1ccn([C@@H]2O[C@H](CO)[C@@H](O)[C@@H]2O)c(=O)n1 [Cytarabine] + CC(C)C[C@H](NC(=O)[C@H](Cc1ccccc1)NC(=O)c1cnccn1)B(O)O [Bortezomib] (partner 0.002 µM), the relative viability (NCI-H1355; first compound 0.005 µM) was 1.02, the relative viability (NCI-H1355; first compound 0.01581 µM) was 1.18 and the relative viability (NCI-H1355; first compound 0.05 µM) was 0.927. It also gave a relative viability (NCI-H1355; first compound 0.1581 µM) of 0.644, a relative viability (NCI-H1355; first compound 0.5 µM) of 0.389 and a relative viability (NCI-H1650; first compound 0.005 µM) of 0.215. It also gave a relative viability (NCI-H1650; first compound 0.01581 µM) of 0.166, a relative viability (NCI-H1650; first compound 0.05 µM) of 0.172 and a relative viability (NCI-H1650; first compound 0.1581 µM) of 0.161. The relative viability (NCI-H1650; first compound 0.5 µM) was 0.154, the relative viability (BEN; first compound 0.005 µM) was 0.667 and the relative viability (BEN; first compound 0.01581 µM) was 0.742. For the same compound, the relative viability (BEN; first compound 0.05 µM) was 0.413, the relative viability (BEN; first compound 0.1581 µM) was 0.282 and the relative viability (BEN; first compound 0.5 µM) was 0.233. For the same compound, the relative viability (CAL-12T; first compound 0.005 µM) was 0.933, the relative viability (CAL-12T; first compound 0.01581 µM) was 0.715 and the relative viability (CAL-12T; first compound 0.05 µM) was 0.948. For the same compound, the relative viability (CAL-12T; first compound 0.1581 µM) was 0.379, the relative viability (CAL-12T; first compound 0.5 µM) was 0.267 and the relative viability (NCI-H1975; first compound 0.005 µM) was 0.293. The relative viability (NCI-H1975; first compound 0.01581 µM) was 0.323, the relative viability (NCI-H1975; first compound 0.05 µM) was 0.276 and the relative viability (NCI-H1975; first compound 0.1581 µM) was 0.23. It also gave a relative viability (NCI-H1975; first compound 0.5 µM) of 0.213, a relative viability (NCI-H2023; first compound 0.005 µM) of 0.469 and a relative viability (NCI-H2023; first compound 0.01581 µM) of 0.198. For the same compound, the relative viability (NCI-H2023; first compound 0.05 µM) was 0.17, the relative viability (NCI-H2023; first compound 0.1581 µM) was 0.0751 and the relative viability (NCI-H2023; first compound 0.5 µM) was 0.0603. It also gave a relative viability (HCC-366; first compound 0.005 µM) of 1.16, a relative viability (HCC-366; first compound 0.01581 µM) of 0.911 and a relative viability (HCC-366; first compound 0.05 µM) of 0.479. The relative viability (HCC-366; first compound 0.1581 µM) was 0.0971, the relative viability (HCC-366; first compound 0.5 µM) was 0.036 and the relative viability (SK-LU-1; first compound 0.005 µM) was 0.818. It also gave a relative viability (SK-LU-1; first compound 0.01581 µM) of 0.69, a relative viability (SK-LU-1; first compound 0.05 µM) of 0.558 and a relative viability (SK-LU-1; first compound 0.1581 µM) of 0.393. It also gave a relative viability (SK-LU-1; first compound 0.5 µM) of 0.296, a relative viability (NCI-H1563; first compound 0.005 µM) of 0.878 and a relative viability (NCI-H1563; first compound 0.01581 µM) of 0.928. The relative viability (NCI-H1563; first compound 0.05 µM) was 0.779, the relative viability (NCI-H1563; first compound 0.1581 µM) was 0.835 and the relative viability (NCI-H1563; first compound 0.5 µM) was 0.592. It also gave a relative viability (NCI-H1437; first compound 0.005 µM) of 0.334, a relative viability (NCI-H1437; first compound 0.01581 µM) of 0.287 and a relative viability (NCI-H1437; first compound 0.05 µM) of 0.243. For the same compound, the relative viability (NCI-H1437; first compound 0.1581 µM) was 0.18, the relative viability (NCI-H1437; first compound 0.5 µM) was 0.16 and the relative viability (LU99A; first compound 0.005 µM) was 1.14. It also gave a relative viability (LU99A; first compound 0.01581 µM) of 1.24, a relative viability (LU99A; first compound 0.05 µM) of 1.26 and a relative viability (LU99A; first compound 0.1581 µM) of 1.01. The relative viability (LU99A; first compound 0.5 µM) was 1.03, the relative viability (NCI-H2085; first compound 0.005 µM) was 0.983 and the relative viability (NCI-H2085; first compound 0.01581 µM) was 0.913. For the same compound, the relative viability (NCI-H2085; first compound 0.05 µM) was 0.946, the relative viability (NCI-H2085; first compound 0.1581 µM) was 0.631 and the relative viability (NCI-H2085; first compound 0.5 µM) was 0.66. It also gave a relative viability (NCI-H838; first compound 0.005 µM) of 0.802, a relative viability (NCI-H838; first compound 0.01581 µM) of 0.615 and a relative viability (NCI-H838; first compound 0.05 µM) of 0.506. The relative viability (NCI-H838; first compound 0.1581 µM) was 0.242, the relative viability (NCI-H838; first compound 0.5 µM) was 0.21 and the relative viability (COR-L23; first compound 0.005 µM) was 1.01. The relative viability (COR-L23; first compound 0.01581 µM) was 0.945, the relative viability (COR-L23; first compound 0.05 µM) was 0.913 and the relative viability (COR-L23; first compound 0.1581 µM) was 0.274. The relative viability (COR-L23; first compound 0.5 µM) was 0.165, the relative viability (NCI-H1651; first compound 0.005 µM) was 1.09 and the relative viability (NCI-H1651; first compound 0.01581 µM) was 0.916. It also gave a relative viability (NCI-H1651; first compound 0.05 µM) of 0.808, a relative viability (NCI-H1651; first compound 0.1581 µM) of 0.7 and a relative viability (NCI-H1651; first compound 0.5 µM) of 0.663. The relative viability (NCI-H441; first compound 0.005 µM) was 0.612, the relative viability (NCI-H441; first compound 0.01581 µM) was 0.376 and the relative viability (NCI-H441; first compound 0.05 µM) was 0.483. The relative viability (NCI-H441; first compound 0.1581 µM) was 0.283, the relative viability (NCI-H441; first compound 0.5 µM) was 0.162 and the relative viability (NCI-H460; first compound 0.005 µM) was 0.677. For the same compound, the relative viability (NCI-H460; first compound 0.01581 µM) was 0.968, the relative viability (NCI-H460; first compound 0.05 µM) was 0.265 and the relative viability (NCI-H460; first compound 0.1581 µM) was 0.028. For the same compound, the relative viability (NCI-H460; first compound 0.5 µM) was 0.0192, the relative viability (NCI-H1734; first compound 0.005 µM) was 0.515 and the relative viability (NCI-H1734; first compound 0.01581 µM) was 0.377. The relative viability (NCI-H1734; first compound 0.05 µM) was 0.347, the relative viability (NCI-H1734; first compound 0.1581 µM) was 0.149 and the relative viability (NCI-H1734; first compound 0.5 µM) was 0.159. The relative viability (LOU-NH91; first compound 0.005 µM) was 0.406, the relative viability (LOU-NH91; first compound 0.01581 µM) was 0.47 and the relative viability (LOU-NH91; first compound 0.05 µM) was 0.388. It also gave a relative viability (LOU-NH91; first compound 0.1581 µM) of 0.338 and a relative viability (LOU-NH91; first compound 0.5 µM) of 0.357.
